Laboratory results: patent US4742053A, “3-Isoquinoliniomethyl cephalosporin derivatives” (Banyu Pharmaceutical Co., Ltd., priority 1984, dated 1988)
Converted amounts (≈) assume the structure as drawn. Read-outs that look alike come from different tables or passages of the source.

Columns and labels:
P. mirabilis JY10 = experiment: MIC by agar plate dilution method; type: cell-based; conditions: Proteus mirabilis
Outline: (§1)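 Agar dilution, Sensitivity Disk Agar; inoculum 10^6 CFU/ml; MIC reported as μg/ml; cefotaxime and ceftazidime run as comparators.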

K. pneumoniae No. 42 = experiment: MIC by agar plate dilution method; type: cell-based; conditions: Klebsiella pneumoniae
Outline: as §1

S. aureus NIHJJC-1 = experiment: MIC by agar plate dilution method; type: cell-based; conditions: Staphylococcus aureus
Outline: as §1

E. coli ML1410/Rte16 = experiment: MIC by agar plate dilution method; type: cell-based; conditions: Escherichia coli, ML1410/RTE16, read-out: Minimum Inhibitory Concentration, E. coli ML1410/Rte16; 10^6 CFU/ml
Outline: as §1

E. coli W3630/Rms212 = experiment: MIC by agar plate dilution method; type: cell-based; conditions: Escherichia coli, W3630/RMS212, read-out: Minimum Inhibitory Concentration, E. coli W3630/Rms212; 10^6 CFU/ml
Outline: as §1

E. coli CSH2 = experiment: MIC by agar plate dilution method; type: cell-based; conditions: Escherichia coli, 10^6 CFU/ml, read-out: Minimum Inhibitory Concentration
Outline: as §1

P. aeruginosa AK109 = experiment: MIC by agar plate dilution method; type: cell-based; conditions: Pseudomonas aeruginosa
Outline: as §1

E. coli W3630/Rms213 = experiment: MIC by agar plate dilution method; type: cell-based; conditions: Escherichia coli, W3630/RMS213, read-out: Minimum Inhibitory Concentration, E. coli W3630/Rms213; 10^6 CFU/ml
Outline: as §1

C. freundii No. 7 = experiment: MIC by agar plate dilution method; type: cell-based; conditions: Citrobacter freundii
Outline: as §1

P. vulgaris OB1043 = experiment: MIC by agar plate dilution method; type: cell-based; conditions: Proteus vulgaris
Outline: as §1

E. coli C/Rms149 = experiment: MIC by agar plate dilution method; type: cell-based; conditions: Escherichia coli, read-out: Minimum Inhibitory Concentration, E. coli C/Rms149; 10^6 CFU/ml
Outline: as §1

A. calcoaceticus No. 14 = experiment: MIC by agar plate dilution method; type: cell-based; conditions: Acinetobacter calcoaceticus
Outline: as §1

P. vulgaris No. 33 = experiment: MIC by agar plate dilution method; type: cell-based; conditions: Proteus vulgaris
Outline: as §1

P. maltophilia IID 1275 = experiment: MIC by agar plate dilution method; type: cell-based; conditions: Stenotrophomonas maltophilia
Outline: as §1

S. aureus JS-1 = experiment: MIC by agar plate dilution method; type: cell-based; conditions: Staphylococcus aureus
Outline: as §1

P. cepacia 23 = experiment: MIC by agar plate dilution method; type: cell-based
Outline: as §1

P. aeruginosa AKR17 = experiment: MIC by agar plate dilution method; type: cell-based; conditions: Pseudomonas aeruginosa
Outline: as §1

E. coli CSH = experiment: MIC by agar plate dilution method; type: cell-based; conditions: Escherichia coli, 10^6 CFU/ml, read-out: Minimum Inhibitory Concentration
Outline: as §1

E. cloaceae Nek 39 = experiment: MIC by agar plate dilution method; type: cell-based; conditions: read-out: Minimum Inhibitory Concentration
Outline: as §1

E. coli NIHJJC-2 = experiment: MIC by agar plate dilution method; type: cell-based; conditions: Escherichia coli
Outline: as §1

S. marcescens No. 16-2 = experiment: MIC by agar plate dilution method; type: cell-based; conditions: Serratia marcescens
Outline: as §1

[1] = test system: Gram-positive bacteria and Gram-negative bacteria; conditions: background, Antimicrobial Agents and Chemotherapy; cited from earlier work
E. coli NIHJ = experiment: bioautography (TLC); type: cell-based; conditions: TLC Merck silica gel F254, E. coli NIHJ
Method: 2.5 mg of the compound obtained in Example 4 (C) was suspended in 0.5 ml of methanol, and 35 μl of concentrated aqueous ammonia was added thereto. The mixture was left to stand at room temperature for 1 hour. […] The fraction of this peak was separated and freeze-dried to obtain 1 mg of the above identified compound.

bacteria = experiment: antibacterial spectrum of the compound of Example 6; type: cell-based; conditions: compared with the compound of Example 3 (E)
[2] = P. mirabilis JY10, 10^6 CFU/ml, read-out: Minimum Inhibitory Concentration
[3] = K. pneumoniae No. 42, 10^6 CFU/ml, read-out: Minimum Inhibitory Concentration
[4] = NIHJJC1, S. aureus NIHJJC-1, 10^6 CFU/ml, read-out: Minimum Inhibitory Concentration
[5] = AK109, P. aeruginosa AK109, 10^6 CFU/ml, read-out: Minimum Inhibitory Concentration
[6] = C. freundii No. 7, 10^6 CFU/ml, read-out: Minimum Inhibitory Concentration
[7] = OB1043, P. vulgaris OB1043, 10^6 CFU/ml, read-out: Minimum Inhibitory Concentration
[8] = NO.14, A. calcoaceticus No. 14, 10^6 CFU/ml, read-out: Minimum Inhibitory Concentration
[9] = P. vulgaris No. 33, 10^6 CFU/ml, read-out: Minimum Inhibitory Concentration
[10] = JS1, S. aureus JS-1, 10^6 CFU/ml, read-out: Minimum Inhibitory Concentration
[11] = Burkholderia cepacia, P. cepacia 23, 10^6 CFU/ml, read-out: Minimum Inhibitory Concentration
[12] = AKR17, P. aeruginosa AKR17, 10^6 CFU/ml, read-out: Minimum Inhibitory Concentration
[13] = E. cloaceae Nek 39, 10^6 CFU/ml
[14] = NIHJJC2, E. coli NIHJJC-2, 10^6 CFU/ml, read-out: Minimum Inhibitory Concentration
[15] = NO.162, S. marcescens No. 16-2, 10^6 CFU/ml, read-out: Minimum Inhibitory Concentration
[16] = NO.42, read-out: Minimum Inhibitory Concentration
[17] = NIHJJC1, read-out: Minimum Inhibitory Concentration

| Structure (SMILES) | MIC (P. mirabilis JY10; [2]) [µg/mL] | MIC (K. pneumoniae No. 42; [3]) [µg/mL] | MIC (S. aureus NIHJJC-1; [4]) [µg/mL] | MIC (E. coli ML1410/Rte16) [µg/mL] | MIC (E. coli W3630/Rms212) [µg/mL] | MIC (E. coli CSH2) [µg/mL] | MIC (P. aeruginosa AK109; [5]) [µg/mL] | MIC (E. coli W3630/Rms213) [µg/mL] | MIC (C. freundii No. 7; [6]) [µg/mL] | MIC (P. vulgaris OB1043; [7]) [µg/mL] | MIC (E. coli C/Rms149) [µg/mL] | MIC (A. calcoaceticus No. 14; [8]) [µg/mL] | MIC (P. vulgaris No. 33; [9]) [µg/mL] | MIC (S. aureus JS-1; [10]) [µg/mL] | MIC (P. cepacia 23; [11]) [µg/mL] | MIC (P. aeruginosa AKR17; [12]) [µg/mL] | MIC (E. coli CSH) [µg/mL] | MIC (E. cloaceae Nek 39; [13]) [µg/mL] | MIC (E. coli NIHJJC-2; [14]) [µg/mL] | MIC (S. marcescens No. 16-2; [15]) [µg/mL] | further results |
| --- | --- | --- | --- | --- | --- | --- | --- | --- | --- | --- | --- | --- | --- | --- | --- | --- | --- | --- | --- | --- | --- |
| CO/N=C(\C(=O)N[C@@H]1C(=O)N2C(C(=O)O)=C(COC(C)=O)CS[C@H]12)c1csc(N)n1 [Cefotaxime, reference compound] | ≤ 0.05 | 0.1 (≈ 0.22 µM) | 0.78 (≈ 1.71 µM) | ≤ 0.05 | ≤ 0.05 | ≤ 0.05 | 6.25 (≈ 13.7 µM) | 0.2 (≈ 0.439 µM) | 0.39 (≈ 0.856 µM) | 0.39 (≈ 0.856 µM) | ≤ 0.05 | 25 (≈ 54.9 µM) | ≤ 0.05 | 6.25 (≈ 13.7 µM) | 6.25 (≈ 13.7 µM) | > 25 | 0.1 (≈ 0.22 µM) | 0.78 (≈ 1.71 µM) | ≤ 0.05 | 6.25 (≈ 13.7 µM) | MIC (P. maltophilia IID 1275; IID1275, P. maltophilia IID 1275, 10^6 CFU/ml, read-out: Minimum Inhibitory Concentration): > 25 µg/mL; antibacterial activities [1]: relatively poor antibacterial activities against Gram-positive bacteria, and excellent activities against Gram-negative bacteria, particularly against Enterobacteriacae |
| CC(C)(O/N=C(\C(=O)N[C@@H]1C(=O)N2C(C(=O)[O-])=C(C[n+]3ccccc3)CS[C@H]12)c1csc(N)n1)C(=O)O [Ceftazidime, reference compound] | – | – | – | 0.2 (≈ 0.366 µM) | 0.2 (≈ 0.366 µM) | ≤ 0.1 | – | 0.2 (≈ 0.366 µM) | – | – | 0.2 (≈ 0.366 µM) | – | – | – | – | – | ≤ 0.1 | – | – | – | MIC (P. mirabilis JY10; JY10, read-out: Minimum Inhibitory Concentration): ≤ 0.1 µg/mL; MIC (K. pneumoniae No. 42; [16]): 0.39 µg/mL (≈ 0.714 µM); MIC (S. aureus NIHJJC-1; [17]): 3.12 µg/mL (≈ 5.71 µM); MIC (P. aeruginosa AK109; AK109, read-out: Minimum Inhibitory Concentration): 1.56 µg/mL (≈ 2.85 µM); MIC (C. freundii No. 7; NO.7, read-out: Minimum Inhibitory Concentration): 1.56 µg/mL (≈ 2.85 µM); MIC (P. vulgaris OB1043; OB1043, read-out: Minimum Inhibitory Concentration): ≤ 0.1 µg/mL; MIC (A. calcoaceticus No. 14; NO.14, read-out: Minimum Inhibitory Concentration): 6.25 µg/mL (≈ 11.4 µM); MIC (P. vulgaris No. 33; NO.33, read-out: Minimum Inhibitory Concentration): ≤ 0.1 µg/mL; MIC (P. maltophilia IID 1275; IID1275, read-out: Minimum Inhibitory Concentration): > 25 µg/mL; MIC (S. aureus JS-1; JS1, read-out: Minimum Inhibitory Concentration): 50 µg/mL (≈ 91.5 µM); MIC (P. cepacia 23; Burkholderia cepacia, 23, read-out: Minimum Inhibitory Concentration): 0.39 µg/mL (≈ 0.714 µM); MIC (P. aeruginosa AKR17; AKR17, read-out: Minimum Inhibitory Concentration): > 100 µg/mL; MIC (E. cloaceae Nek 39): 0.78 µg/mL (≈ 1.43 µM); MIC (E. coli NIHJJC-2; NIHJJC2, read-out: Minimum Inhibitory Concentration): ≤ 0.1 µg/mL; MIC (S. marcescens No. 16-2; NO.162, read-out: Minimum Inhibitory Concentration): 1.56 µg/mL (≈ 2.85 µM); antibacterial activities [1]: the most excellent cephalosporin derivative against Gram-positive bacteria including Pseudomonas aeruginosa and Acinetobacter |
| CON=C(C(=O)NC1C(=O)N2C(C(=O)[O-])=C(C[N+]3(C)CCc4cc(O)c(O)cc4C3)CSC12)c1csc(N)n1 (centres unmarked) [Ex. 3-E, 7-[(Z)-2-(2-aminothiazol-4-yl)-2-methoxyiminoacetamido]-3-(6,7-dihydroxy-2-methyl-1,2,3,4-tetrahydro-2-isoquinolinium)methyl-3-cephem-4-carboxylate] | 0.78 (≈ 1.36 µM) | – | – | 0.1 (≈ 0.174 µM) | 0.05 (≈ 0.087 µM) | 0.1 (≈ 0.174 µM) | 0.78 (≈ 1.36 µM) | 1.56 (≈ 2.71 µM) | 3.12 (≈ 5.43 µM) | 0.78 (≈ 1.36 µM) | 0.1 (≈ 0.174 µM) | 0.39 (≈ 0.679 µM) | 0.2 (≈ 0.348 µM) | 6.25 (≈ 10.9 µM) | – | 3.12 (≈ 5.43 µM) | 0.78 (≈ 1.36 µM) | 0.1 (≈ 0.174 µM) | 0.1 (≈ 0.174 µM) | 12.5 (≈ 21.8 µM) | antibacterial spot in bioautography (E. coli NIHJ): shows a spot exhibiting antibacterial activities at Rf=0.1; MIC (K. pneumoniae No. 42; [16]): 0.39 µg/mL (≈ 0.679 µM); MIC (S. aureus NIHJJC-1; [17]): 1.56 µg/mL (≈ 2.71 µM); antibacterial spectrum (bacteria): exhibited the same antibacterial spectrum as the compound of Example 3 (E) |
| CO/N=C(\C(=O)NC1C(=O)N2C(C(=O)[O-])=C(C[N+]3(C)CCc4cc(OC(C)=O)c(OC(C)=O)cc4C3)CSC12)c1csc(N)n1 (centres unmarked) [Ex. 4-C, 7-[(Z)-2-(2-aminothiazol-4-yl)-2-methoxyiminoacetamido]-3-(6,7-diacetoxy-2-methyl-1,2,3,4-tetrahydro-2-isoquinolinium)methyl-3-cephem-4-carboxylate] | 0.78 (≈ 1.18 µM) | 0.2 (≈ 0.304 µM) | 3.12 (≈ 4.74 µM) | 0.1 (≈ 0.152 µM) | ≤ 0.05 | 0.1 (≈ 0.152 µM) | 0.1 (≈ 0.152 µM) | 1.56 (≈ 2.37 µM) | 6.25 (≈ 9.49 µM) | 1.56 (≈ 2.37 µM) | ≤ 0.1 | 0.39 (≈ 0.592 µM) | 0.2 (≈ 0.304 µM) | 25 (≈ 38 µM) | 0.78 (≈ 1.18 µM) | 1.56 (≈ 2.37 µM) | 1.56 (≈ 2.37 µM) | ≤ 0.05 | < 0.05 | 6.25 (≈ 9.49 µM) | antibacterial spot in bioautography (E. coli NIHJ): the antibacterial spot of the starting material was at Rf=0.4 |
